Where two headings read alike, the source gives them in different places. Starred links: 1 amine or outer side, 2 acyl side, 3 side chain; linkers in the order of their positions; H or OH if unused. Positions of bridges follow the written chain, without caps; N, C: chain ends. Non-standard residues stand in square brackets, D forms with d. Residues, ends and D or L forms follow the SMILES beside them. Groups on a side chain read outwards from the residue. *: point of attachment. Trp(1-Me) = Cn1cc(C[C@H](N)C(=O)O)c2ccccc21; C18 diacid = O=C(O)CCCCCCCCCCCCCCCCC(=O)*; C16 diacid = O=C(O)CCCCCCCCCCCCCCC(=O)*; γGlu = O=C(O)[C@H](CCC(=O)[*:2])N[*:1]; AEEA = NCCOCCOCC(=O)O; Sar = CNCC(=O)O
System: classical complement pathway
Assay: In vitro haemolysis assay (inhibition of classical complement pathway)
Assay type: cell-based, human
Procedure, shortened: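 Compound dilutions preincubated 15 min at room temperature with diluted human serum (titrated per batch for 70-90% maximal haemolysis), then antibody-sensitized sheep RBC (10^7/well) added for 30 min at 37 °C in Tris/casein buffer, pH 7.4. Stopped with EDTA; haemolysis read at 405 nm; IC50 by 4PL fit.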

[1] = human serum, sensitized sheep red blood cells, Table 3, given as upper bounds, read-out: IC50, inhibition of hemolysis

Compound | IC50 (Table 5, different residues at position 3 of Ac-IC(1)XWQDWGEHRC(1)T-NH2, read-out: IC50, CP hemolysis) | IC50 [1] | IC50 (human serum, sensitized sheep red blood cells, Table 4, valine 3 vs isoleucine 3 pairs, read-out: CP hemolysis IC50)
CC[C@H](C)[C@H](NC(C)=O)C(=O)N[C@H]1CSSC[C@@H](C(=O)N[C@H](C(N)=O)[C@@H](C)O)NC(=O)[C@H](CCCNC(=N)N)NC(=O)[C@H](Cc2c[nH]cn2)NC(=O)[C@H](CCC(=O)O)NC(=O)CNC(=O)[C@H](Cc2c[nH]c3ccccc23)NC(=O)[C@H](CC(=O)O)NC(=O)[C@H](CCC(N)=O)NC(=O)[C@H](Cc2c[nH]c3ccccc23)NC(=O)[C@H]([C@@H](C)CC)NC1=O [Compound 2] (Ac-ICIWQDWGEHRCT-NH2; disulfide 2-12) | < 100 nM | < 100 nM | 94 nM
CC[C@H](C)[C@@H]1NC(=O)[C@@H](NC(=O)[C@H](Cc2ccccc2)NC(=O)[C@H](CCC(=O)O)NC(=O)[C@H](CO)NC(C)=O)CSSC[C@@H](C(=O)N(C)CC(=O)N[C@@H](CCC(=O)O)C(=O)NCC(=O)N[C@@H](CCC(=O)O)C(=O)NCCOCCOCC(=O)N[C@@H](CCC(=O)O)C(=O)N[C@@H](CO)C(=O)N[C@@H](CCCCNC(=O)CC[C@H](NC(=O)CNC(=O)CC[C@H](NC(=O)CCCCCCCCCCCCCCCCC(=O)O)C(=O)O)C(=O)O)C(N)=O)NC(=O)[C@H](CCCNC(=N)N)NC(=O)[C@H](Cc2c[nH]cn2)NC(=O)[C@H](CCC(=O)O)NC(=O)CNC(=O)[C@H](Cc2c[nH]c3ccccc23)NC(=O)[C@H](CC(=O)O)NC(=O)[C@H](CCC(N)=O)NC(=O)[C@H](Cc2cn(C)c3ccccc23)NC1=O [Compound 140] (Ac-SEFCI[Trp(1-Me)]QDWGEHRC[Sar]EGE[AEEA]ESK([γGlu-Gly-γGlu-C18 diacid])-NH2; disulfide 4-14) |  | < 100 nM | 
CC[C@H](C)[C@H](NC(=O)[C@H](C)NC(=O)[C@H](CO)NC(=O)CNC(=O)[C@H](CCC(=O)O)NC(C)=O)C(=O)N[C@H]1CSSC[C@@H](C(=O)N[C@H](C(=O)N[C@@H](CCC(=O)O)C(=O)NCC(=O)N[C@@H](CCCCNC(=O)CC[C@H](NC(=O)CCCCCCCCCCCCCCC(=O)O)C(=O)O)C(N)=O)[C@@H](C)O)NC(=O)[C@H](CCCNC(=N)N)NC(=O)[C@H](Cc2c[nH]cn2)NC(=O)[C@H](CCC(=O)O)NC(=O)CNC(=O)[C@H](Cc2c[nH]c3ccccc23)NC(=O)[C@H](CC(=O)O)NC(=O)[C@H](CCC(N)=O)NC(=O)[C@H](Cc2c[nH]c3ccccc23)NC(=O)[C@H]([C@@H](C)CC)NC1=O [Compound 101] (Ac-EGSAICIWQDWGEHRCTEGK([γGlu-C16 diacid])-NH2; disulfide 6-16) |  | < 500 nM | 
CC[C@H](C)[C@H](NC(C)=O)C(=O)N[C@H]1CSSC[C@@H](C(=O)N[C@H](C(=O)NCC(=O)N[C@@H](C)C(=O)N[C@@H](CCC(=O)O)C(=O)N[C@@H](CO)C(N)=O)[C@@H](C)O)NC(=O)[C@H](CCCNC(=N)N)NC(=O)[C@H](Cc2c[nH]cn2)NC(=O)[C@H](C)NC(=O)CNC(=O)[C@H](Cc2c[nH]c3ccccc23)NC(=O)[C@H](CC(=O)O)NC(=O)[C@H](CCC(N)=O)NC(=O)[C@H](Cc2c[nH]c3ccccc23)NC(=O)[C@H]([C@@H](C)CC)NC1=O [Compound 47] (Ac-ICIWQDWGAHRCTGAES-NH2; disulfide 2-12) |  | < 100 nM | 
CC[C@H](C)[C@@H]1NC(=O)[C@@H](NC(=O)[C@H](Cc2ccc(O)cc2)NC(=O)[C@H](CCC(=O)O)NC(=O)[C@H](CO)NC(C)=O)CSSC[C@@H](C(=O)N(C)CC(=O)N[C@@H](CCC(=O)O)C(=O)NCC(=O)N[C@@H](C)C(=O)N[C@@H](CCCCNC(=O)COCCOCCNC(=O)CC[C@H](NC(=O)COCCOCCNC(=O)CNC(=O)CC[C@H](NC(=O)CCCCCCCCCCCCCCCCC(=O)O)C(=O)O)C(=O)O)C(N)=O)NC(=O)[C@H](CCCNC(=N)N)NC(=O)[C@H](Cc2c[nH]cn2)NC(=O)[C@H](CCC(=O)O)NC(=O)CNC(=O)[C@H](Cc2c[nH]c3ccccc23)NC(=O)[C@H](CCC(=O)O)NC(=O)[C@H](CCC(N)=O)NC(=O)[C@H](Cc2cn(C)c3ccccc23)NC1=O [Compound 122] (Ac-SEYCI[Trp(1-Me)]QEWGEHRC[Sar]EGAK([AEEA-γGlu-AEEA-Gly-γGlu-C18 diacid])-NH2; disulfide 4-14) |  | < 500 nM | 
